Assay results from ChEMBL document CHEMBL1201862, “PubChem BioAssay data set” (2004).
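These data come from cells grown in 96-well plates and exposed to compound for 48 hours at five concentrations. GI50 = concentration required for 50% inhibition of growth.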 The source made the active and inactive calls. Rule as the data show it: active = GI50 up to about 1.1 µM and inactive = higher.

Key:
Experiment in all cases: DTP human tumour cell line panel, 48 h
[1] = system: SF-268
[2] = system: M19-MEL
[3] = system: SK-OV-3
[4] = system: HL-60
[5] = system: ACHN
[6] = system: K562
[7] = system: SN12C
[8] = system: CAKI-1
[9] = system: NCI-H522
[10] = system: HCT-116
[11] = system: UACC-257
[12] = system: OVCAR-8
[13] = system: SK-MEL-28
[14] = system: MOLT-4
[15] = system: Malme-3M
[16] = system: HCT-15
[17] = system: PC-3
[18] = system: MDA-MB-435
[19] = system: DU-145
[20] = system: MDA-N

Measured: GI50

Cc1cccc2c1N(C(=O)/C=C\C(=O)O)C(c1c(C)[nH]c3ccccc13)C2 (centres undefined)
inactive: [1] > 10 µM | [2] 22.7 µM | [3] 30.8 µM | [4] 20.7 µM | [5] 84.3 µM | [6] 36.6 µM | [7] 40.7 µM | [8] 30.3 µM | [9] 18.5 µM | [10] 23.2 µM | [11] 33.8 µM | [12] 55.6 µM | [13] 21.9 µM | [14] 31.2 µM | [15] 20.1 µM

O=c1c(-c2ccccc2)c(O)nc2[nH]c3ccccc3n12
inactive: [1] > 100 µM | [2] > 100 µM | [3] > 100 µM | [4] > 100 µM | [5] > 100 µM | [6] > 100 µM | [7] > 100 µM | [8] > 100 µM | [9] > 100 µM | [10] > 100 µM | [11] > 100 µM | [12] > 100 µM | [13] > 100 µM | [14] > 100 µM | [15] > 100 µM
> 100 µM: [16]

COc1ccc(OC)c2[s+]snc12
inactive: [1] 52.6 µM | [2] 15.8 µM | [3] > 100 µM | [4] 33.3 µM | [5] 91.2 µM | [6] 34.5 µM | [7] > 100 µM | [8] > 100 µM | [9] 47.8 µM | [10] 57.7 µM | [11] 27.1 µM | [12] 31.7 µM | [13] 83.8 µM | [14] 70.8 µM | [15] > 100 µM

COc1cc2c(cc1OC)C(C(=O)c1cccc(OC)c1OC)C(=O)N(C)CC2 (centres undefined)
inactive: [1] > 100 µM | [2] > 100 µM | [3] > 100 µM | [4] > 100 µM | [5] > 100 µM | [6] > 100 µM | [7] > 100 µM | [8] > 100 µM | [9] > 100 µM | [10] > 100 µM | [11] > 100 µM | [12] > 100 µM | [13] > 100 µM | [14] > 100 µM | [15] > 100 µM
> 100 µM: [16]

CCN(CC)CCNc1ccc2nnn3c4ccccc4c(=O)c1c23
4.51 µM: [16]
inactive: [1] 4.83 µM | [2] 4.86 µM | [3] 17.4 µM | [4] 2.89 µM | [5] 3.24 µM | [6] 2.97 µM | [7] 4.41 µM | [8] 3.15 µM | [9] 4.75 µM | [10] 4.44 µM | [11] 4.48 µM | [12] 3.15 µM | [13] 4.65 µM | [14] 1.66 µM | [15] 4.01 µM

COc1ccc(C2CC(=O)c3c(O)cc(O)cc3O2)cc1O (centres undefined)
> 100 µM: [16]
inactive: [1] > 100 µM | [2] > 100 µM | [3] > 100 µM | [4] > 100 µM | [5] > 100 µM | [6] 28.8 µM | [7] > 100 µM | [8] > 100 µM | [9] > 100 µM | [10] > 100 µM | [11] > 100 µM | [12] > 100 µM | [13] > 100 µM | [14] > 100 µM | [15] > 100 µM

CNS(=O)(=O)NNS(=O)(=O)c1ccc(Br)cc1
inactive: [1] > 100 µM | [2] > 100 µM | [3] > 100 µM | [4] > 100 µM | [5] > 100 µM | [6] > 100 µM | [8] > 100 µM | [9] > 100 µM | [10] 99.3 µM | [11] > 100 µM | [12] > 100 µM | [13] > 100 µM | [15] > 100 µM
> 100 µM: [16]

CN(C)CCC(=O)N1C/C(=C/c2ccccc2)C(=O)/C(=C\c2ccccc2)C1
1.05 µM: [16]
inactive: [17] 1.54 µM | [1] 2.74 µM | [3] 6.25 µM | [18] 1430 nM | [5] 2.01 µM | [7] 1.25 µM | [19] 6.79 µM | [8] 2.41 µM | [20] 1140 nM | [11] 2.08 µM | [13] 1.58 µM | [15] 2.16 µM
active: [2] 0.834 µM | [4] 0.356 µM | [6] 0.182 µM | [9] 0.301 µM | [10] 0.447 µM | [12] 1.03 µM | [14] 0.313 µM

O=[N+]([O-])c1ccc(Cl)cc1C1SCc2nc3ccccc3n21 (centres undefined)
inactive: [1] 42.1 µM | [2] 61.7 µM | [3] 62.8 µM | [4] 31 µM | [5] 14.3 µM | [6] 33.1 µM | [7] 54.1 µM | [8] 33 µM | [9] 24.4 µM | [10] 38.3 µM | [11] 45.2 µM | [12] 60.8 µM | [13] > 100 µM | [14] 36.3 µM | [15] 99.8 µM
31 µM: [16]

CC(=O)NC(Cc1ccccc1)C(=S)N1CCCC1 (centres undefined)
inactive: [1] > 100 µM | [2] > 100 µM | [3] > 100 µM | [4] > 100 µM | [5] > 100 µM | [6] > 100 µM | [7] > 100 µM | [8] > 100 µM | [9] > 100 µM | [10] > 100 µM | [11] > 100 µM | [12] > 100 µM | [13] > 100 µM | [14] > 100 µM | [15] > 100 µM
> 100 µM: [16]

COC(=O)C12C3C4C5C3(C#N)C1C5(C(=O)OC)C42C(=O)N(C(C)C)C(C)C (centres undefined)
> 42.2 µM: [16]
inactive: [1] > 100 µM | [2] > 100 µM | [3] > 100 µM | [4] > 43.7 µM | [5] > 100 µM | [6] > 49.4 µM | [7] > 100 µM | [8] > 100 µM | [9] > 33.4 µM | [10] 39.9 µM | [11] > 100 µM | [12] > 63 µM | [13] > 100 µM | [14] 66.2 µM | [15] > 100 µM

NCCCCN(CCCN)/[N+]([O-])=N\O
inactive: [1] > 100 µM | [2] > 100 µM | [3] > 100 µM | [4] > 100 µM | [5] > 100 µM | [6] > 100 µM | [7] > 100 µM | [8] > 100 µM | [9] > 100 µM | [10] > 100 µM | [11] > 100 µM | [12] > 100 µM | [13] > 100 µM | [14] > 100 µM | [15] > 100 µM
> 100 µM: [16]

O=C1C=CC2(O)OCC3C=C4O[C@@H]5OC6(CCCCC6)O[C@@H]5C4[C@@H]2[C@@H]13 (some centres undefined)
inactive: [1] 33.2 µM | [2] 21.1 µM | [3] > 100 µM | [4] 16.5 µM | [5] 26.1 µM | [6] 14.5 µM | [7] 48 µM | [8] 22.7 µM | [9] 11.3 µM | [10] 15.8 µM | [11] 17.8 µM | [12] 24.9 µM | [13] 20 µM | [14] 9.25 µM | [15] 30.3 µM
17 µM: [16]

NC(=O)NC1C(C(=O)O)N(Cc2ccccc2)C(=O)N1Cc1ccccc1 (centres undefined)
> 100 µM: [16]
inactive: [1] > 100 µM | [2] > 100 µM | [3] > 100 µM | [4] > 100 µM | [5] > 100 µM | [6] > 100 µM | [8] > 100 µM | [9] > 100 µM | [10] > 100 µM | [11] > 100 µM | [12] > 100 µM | [13] > 100 µM | [14] 3.72 µM | [15] > 100 µM

CC1CCSC(N(C(=O)N(C)c2ccccc2)c2ccccc2)=N1 (centres undefined)
inactive: [1] > 100 µM | [2] > 100 µM | [3] > 100 µM | [4] > 100 µM | [5] > 100 µM | [6] > 100 µM | [7] > 100 µM | [8] > 100 µM | [9] > 100 µM | [10] > 100 µM | [11] > 100 µM | [12] > 100 µM | [13] > 100 µM | [14] > 100 µM | [15] > 100 µM
> 100 µM: [16]

CC[C@@]1(OC(=O)CN(C)C)C(=O)OCc2c1cc1n(c2=O)Cc2cc3ccccc3nc2-1
0.228 µM: [16]
active: [17] 0.0973 µM | [1] < 0.0131 µM | [2] 0.114 µM | [3] 0.071 µM | [4] 0.0105 µM | [18] 194 nM | [5] 0.00875 µM | [6] 0.061 µM | [7] < 0.0191 µM | [19] 0.013 µM | [8] 0.0211 µM | [9] 0.255 µM | [10] 0.0481 µM | [20] 173 nM | [11] 0.11 µM | [12] 0.0596 µM | [13] 0.308 µM | [14] 0.00295 µM | [15] 0.347 µM

CN(C)[C@@H]1C(O)=C(C(=O)NCNc2nc3[nH]nnc3c(=O)[nH]2)C(=O)[C@@]2(O)C(O)=C3C(=O)c4c(O)cccc4[C@@](C)(O)[C@H]3C[C@@H]12
inactive: [17] 3.42 µM | [2] 2.24 µM | [5] 31.5 µM | [19] 1.27 µM | [9] 20.4 µM | [10] 1.21 µM | [11] 1.28 µM | [13] 1.33 µM
42.5 µM: [16]
active: [1] 1.01 µM | [3] 0.723 µM | [4] 0.231 µM | [18] 452 nM | [6] 0.402 µM | [7] 0.743 µM | [8] 0.557 µM | [20] 393 nM | [12] 0.817 µM | [14] 0.288 µM | [15] 0.773 µM
